# Assay results: US20250188085A1, “COMPOSITIONS AND METHODS FOR INHIBITION OF RAS” (THERAS, INC., priority 2022, published 2025)
# Like-named read-outs stand apart in the source and are kept apart here.
# Legend:
# [1] = target: T1, GDP-loaded KRAS4b (amino acids 1-169) G12C/C118S protein (Homo sapiens, UniProt P01116, C118S/G12C); assay: Covalent cysteine 12 modification by MALDI-TOF MS, GDP-loaded KRAS G12C; format: binding; conditions: 15 minutes reaction time point
# T1 construct: KRAS4b (amino acids 1-169) G12C/C118S protein; made in house
# Method in brief: (§1)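 KRAS4b 1-169 G12C/C118S loaded with GDP, GppNHp or GTP was used at 1 μM in 20 mM HEPES, 150 mM NaCl, 1 mM MgCl2, pH 7.3, and incubated with compound (5 mM DMSO stock) at room temperature in the dark. % modification at 15 min is adduct peak height over total protein peak heights by linear-mode MALDI-TOF.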
# [2] = target: T2, GTP-loaded KRAS4b (amino acids 1-169) G12C/C118S protein (Homo sapiens, UniProt P01116, C118S/G12C); assay: Covalent cysteine 12 modification by MALDI-TOF MS, GTP-loaded KRAS G12C; format: binding; conditions: 15 minutes reaction time point
# T2 construct: KRAS4b (amino acids 1-169) G12C/C118S protein; made in house
# Procedure: Reaction: 1 μM of GppNHp-, GTP-, or GDP-loaded KRAS4b (amino acids 1-169) G12C/C118S protein (produced in-house by Protein Expression Laboratory, FNLCR/Leidos Biomed) in 20 mM 4-(2-hydroxyethyl)-1-piperazineethanesulfonic acid (HEPES) buffer containing 150 mM NaCl, 1 mM MgCl2, pH 7.3 was prepared freshly before assay. Ten-μL aliquots of protein were dispensed onto low volume 384-well plate, then 375 nL DMSO, and 25 nL of tested compounds from 5 mM DMSO stocks were added to appropriate wells using ECHO 555 acoustic liquid handler (Labcyte Inc.). For each reaction/assay, three blanks were prepared by mixing 10 μL of protein solution with 400 nL DMSO. The contents of the wells were carefully mixed by aspiration, and then each plate was sealed with an adhesive cover, centrifuged at 2000 g for 1 minute, and kept in the dark at room temperature until 5 min, 15 min, 30 min, or 2 h collections.
# Target pretreatment: Before each assay MALDI target (Bruker MPT 384 ground steel BC) was pre-treated by pipetting on each spot 0.75 μL of saturated sinapinic acid in acetonitrile (ACN).
# Sample preparation: At collection time point, 2 μL of reaction mixtures were pipetted out into 20 μL MALDI matrix solution (saturated solution of sinapinic acid in 1:1 ACN:water solution containing 0.75% trifluoroacetic acid (TFA)) deposited on 384 well polypropylene plate. Resulting solution was mixed by aspiration, centrifuged at 2000 g for 1 minute, then 1 μL aliquots were dispensed on pre-treated MALDI target using Beckman Coulter Biomek FXP 96/384-Span-8 Laboratory Automation Workstation. Finally, the MALDI target was dried under mild vacuum to produce spots with fine crystalline structure.
# Measurements: MALDI-TOF measurements were performed on a Bruker Daltonics rapiflex Tissuetyper TOF-TOF mass spectrometer using linear mode and mass range from 18.6 to 21.6 kDa. Detector gain was set to 3.3× (483 V), sample rate to 5 GS/s, real time smoothing to medium (175 MHz), laser smart beam pattern was set to: “MS Thin Layer M5”, and the laser frequency was 10000 Hz. Spectra were automatically collected using custom Auto Xecute method. Laser power was auto adjusted using fuzzy control. The peak selection range was set to be between 19000 and 21500 Da. Peak evaluation uses half width parameter set to be smaller than 40 Da for processed spectrograms (centroid peak detection; smoothed by SavitzkyGolay algorithm using 7 m/z width and 2 cycles; baseline was subtracted using median algorithm with flatness 1 and median level 0.01). Fuzzy control used Proteins/Oligonucleotides protocol with minimum half width 1/10 times above threshold. Up to 40000 satisfactory shots were collected in 10000 shot steps. Dynamic termination was implemented to finish data collection when peak signal/noise ratio was reaching value of 50.
# Spectra processing: Spectra were smoothed by SavitzkyGolay algorithm using 7 m/z width and three cycles. Centroid peak detection algorithm was used with signal to noise threshold set to 6, relative intensity threshold 4%, peak width 10 m/z and median baseline subtraction using flatness of 1 and median level of 0.01. Peak intensity and area under the peak were evaluated and recorded for all peaks between 19,300 Da and 21,550 Da.
# Calculation of percent modification: Percent modification was calculated as a ratio of peak height for protein modified by compound to sum of peak height of remaining protein plus peak height for protein modified by compound. If multiple modifications were observed each was calculated as a ratio of peak height for given modification versus sum of peak heights for all observed protein species. Data reported in Table 5 are from 15 minutes reaction time point.
# [3] = target: T3, GppNHp-loaded KRAS4b (amino acids 1-169) G12C/C118S protein (Homo sapiens, UniProt P01116, C118S/G12C); assay: Covalent cysteine 12 modification by MALDI-TOF MS, GppNHp-loaded KRAS G12C; format: binding; conditions: 15 minutes reaction time point
# T3 construct: KRAS4b (amino acids 1-169) G12C/C118S protein; made in house
# Method in brief: as §1
# [4] = system: pERK in NCI-H358 cells; assay: Cell-based pERK HTRF assay; conditions: 30 min incubation, read-out: pERK in NCI-H358 cell inhibition IC50
# Method in brief: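 Cells seeded at 4×10^4/well in RPMI with 10% FBS, then next day treated for 30 min with a 9-point, 3-fold series from 75 μM top concentration at 0.25% DMSO. Lysates were read for pERK by HTRF (d2/Eu cryptate antibodies) after 4–24 h at room temperature, emission at 615 nm.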
# [5] = target: T4, Avi-KRAS G12C (1-169) GppNHp/RAF1 RBD-3×FLAG (52-151) (Homo sapiens, UniProt P01116, G12C); assay: Raf1 RBD-KRAS G12C-GppNHp disruption (protein:protein interaction HTRF assay); format: biochemical
# T4 construct: Avi-KRAS G12C (1-169) GppNHp/RAF1 RBD-3×FLAG (52-151)
# Method in brief: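 HTRF measuring disruption of 50 nM Avi-KRAS G12C (1-169) loaded with GppNHp binding RAF1 RBD-3×FLAG (52-151), in pH 7.5 Tris buffer with 5 mM MgCl2, 0.1% BSA, 10% DMSO. KRAS preincubated with compound 1 h, then RBD 1 h, then detection reagents 1 h, all at room temperature. Compound titration 30-0.02 μM; activity expressed as percent of DMSO control.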
SMILES,GDP-KRAS G12C percent of modification [1],GTP-KRAS G12C percent of modification [2],GppNHp-KRAS G12C percent of modification [3],"IC50 ([4]; Homo sapiens, NCI-H358, 0.5 h) [nM]",IC50 [5] [nM],IC50 [4] [nM]
C=CC(=O)N1C[C@@H](F)[C@@H](Oc2nc(OC[C@@]34CCCN3C[C@H](F)C4)nc3cc(-c4ccc(F)c5sc(N)c(C#N)c45)c(C(F)(F)F)cc23)C1 [Compound 50],B (50≤percent of modification <70%),B (50≤percent of modification <70%),A (percent of modification ≥70%),≤ 100,≤ 500,
"C=CC(=O)N1C[C@H](Oc2nc(OC[C@@]34CCCN3C[C@H](F)C4)nc3c(F)c(-c4ccc(F)c5sc(N)c(C#N)c45)c(C(F)(F)F)cc23)C[C@@H]1COC (atropisomer, axis not shown) [Compound 86]",D (percent of modification <10%),D (percent of modification <10%),D (percent of modification <10%),,5000 to 20000,> 1000
C=CC(=O)N1C[C@@H](F)[C@@H](Oc2nc(OC[C@@]34CCCN3C[C@H](F)C4)nc3c(F)c(-c4ccc(F)c5sc(N)c(C#N)c45)ncc23)C1 [Compound 70],A (percent of modification ≥70%),B (50≤percent of modification <70%),A (percent of modification ≥70%),≤ 100,≤ 500,
C=CC(=O)N1CC[C@@H](Oc2nc(OC[C@@]34CCCN3C[C@H](F)C4)nc3c(F)c(-c4c(F)cc(F)c5sc(N)nc45)ncc23)C1 [Compound 57],A (percent of modification ≥70%),D (percent of modification <10%),C (10%≤modification <50%),100 to 1000,500 to 5000,
C=CC(=O)N1CC[C@@H](Oc2nc(OC[C@@]34CCCN3C[C@H](F)C4)nc3cc(-c4ccc(F)c5sc(N)nc45)c(C(F)(F)F)cc23)[C@H]1C [Compound 60],A (percent of modification ≥70%),C (10%≤modification <50%),B (50≤percent of modification <70%),≤ 100,≤ 500,
C=CC(=O)N1CC[C@@H](Oc2nc(OC[C@@]34CCCN3C[C@H](F)C4)nc3cc(-c4ccc(F)c5sc(N)c(C#N)c45)c(C(F)(F)F)cc23)[C@H]1C [Compound 98],B (50≤percent of modification <70%),C (10%≤modification <50%),B (50≤percent of modification <70%),100 to 1000,≤ 500,
C=CC(=O)N1CC[C@@H](Oc2nc(OC[C@@]34CCCN3C[C@H](F)C4)nc3c(F)c(-c4ccc(F)c5sc(N)nc45)ccc23)[C@H]1C [Compound 88],C (10%≤modification <50%),C (10%≤modification <50%),C (10%≤modification <50%),100 to 1000,≤ 500,
